# US11390597B2, “Salt and solid state forms of escitalopram” (priority 2017, dated 2022)
# How the values were obtained:
# [1] = Treatment of human subjects with escitalopram gentisate composition; assay type: in vivo; conditions: human subject afflicted with a neuropsychiatric disorder, periodic administration (IV, oral, subcutaneous)
# Excerpt: Periodic administration is meant to include inter alia IV, oral and subcutaneous administration.
# [2] = Comparative pharmacokinetics of escitalopram salts, IV and SC administration in rats; assay type: in vivo; conditions: Sprague dawley rats, single IV dose 1 mg/kg or SC dose 5 mg/kg, blood analyzed for escitalopram
# Procedure: Escitalopram salt solutions are prepared for intravenous (IV) and/or subcutaneous (SC) administration as follows: A 1 mg/kg solution of escitalopram oxalate (Ox-Esc) is prepared for IV administration at 1 mL/kg in 10% DMSO, 30% Solutol® (polyoxyethylated 12-hydroxystearic acid), 60% PBS.
# A 1 mg/kg solution of escitalopram pamoate (P-Esc) is prepared for IV administration 1 mL/kg in 10% DMSO, 30% Solutol®, 60% PBS, and for SC administration 200 uL of 5 mg/kg in DMSO.
# (§1) The pharmacokinetics of IV administered escitalopram oxalate are determined as follows. […] Blood is collected from rats post dose in EDTA K2 tubes in a staggered design (cohort 1: 0 min, 30 min, 4 hr, 24 hr; cohort 2: 5 min, 1 hr, 8 hr, 36 hr; cohort 3: 15 min, 2 hr, 12 hr, 48 hr) and analyzed for escitalopram.
# as §1, with “pamoate” for “oxalate”
# The pharmacokinetics of SC administered escitalopram pamoate are determined as follows. […] Blood is collected from rats post dose in EDTA K2 tubes in a staggered design (cohort 1: 0 min, 1 hr, 8 hr, 48 hr; cohort 2: 5 min, 2 hr, 24 hr, 72 hr; cohort 3: 30 min, 4 hr, 36 hr, 96 hr) and analyzed for escitalopram. […]
structure (smiles),measurement,setting,value
CN(C)CCCC1(c2ccc(F)cc2)OCc2cc(C#N)ccc21.O=C(O)c1cc(O)ccc1O (centres unmarked) [escitalopram gentisate],reducing or eliminating the symptoms of the neuropsychiatric disorder,[1],clinically meaningful advantage in reducing or eliminating the symptoms
same,pharmacokinetic profile compared with pamoate and oxalate salts,[2],distinct from those of the pamoate and oxalate salts
